Where “and” joins values, the source holds several entries; their conditions need not be identical. Equal values may be shown once. Entries after “also recorded” stand apart in the source; their conditions may differ.
Columns and labels:
TET1 protein = molecular target: T1, TET1 protein (Homo sapiens, UniProt Q8NFU7); experiment: Fluorometric TET hydroxylase activity assay with purified TET1 enzyme; assay type: biochemical; conditions: screened at 10^−7 to 10^−4 M
T1 construct: purchased Active Motif, Carlsbad, CA, USA
T1 sequence (Q8NFU7 whole entry): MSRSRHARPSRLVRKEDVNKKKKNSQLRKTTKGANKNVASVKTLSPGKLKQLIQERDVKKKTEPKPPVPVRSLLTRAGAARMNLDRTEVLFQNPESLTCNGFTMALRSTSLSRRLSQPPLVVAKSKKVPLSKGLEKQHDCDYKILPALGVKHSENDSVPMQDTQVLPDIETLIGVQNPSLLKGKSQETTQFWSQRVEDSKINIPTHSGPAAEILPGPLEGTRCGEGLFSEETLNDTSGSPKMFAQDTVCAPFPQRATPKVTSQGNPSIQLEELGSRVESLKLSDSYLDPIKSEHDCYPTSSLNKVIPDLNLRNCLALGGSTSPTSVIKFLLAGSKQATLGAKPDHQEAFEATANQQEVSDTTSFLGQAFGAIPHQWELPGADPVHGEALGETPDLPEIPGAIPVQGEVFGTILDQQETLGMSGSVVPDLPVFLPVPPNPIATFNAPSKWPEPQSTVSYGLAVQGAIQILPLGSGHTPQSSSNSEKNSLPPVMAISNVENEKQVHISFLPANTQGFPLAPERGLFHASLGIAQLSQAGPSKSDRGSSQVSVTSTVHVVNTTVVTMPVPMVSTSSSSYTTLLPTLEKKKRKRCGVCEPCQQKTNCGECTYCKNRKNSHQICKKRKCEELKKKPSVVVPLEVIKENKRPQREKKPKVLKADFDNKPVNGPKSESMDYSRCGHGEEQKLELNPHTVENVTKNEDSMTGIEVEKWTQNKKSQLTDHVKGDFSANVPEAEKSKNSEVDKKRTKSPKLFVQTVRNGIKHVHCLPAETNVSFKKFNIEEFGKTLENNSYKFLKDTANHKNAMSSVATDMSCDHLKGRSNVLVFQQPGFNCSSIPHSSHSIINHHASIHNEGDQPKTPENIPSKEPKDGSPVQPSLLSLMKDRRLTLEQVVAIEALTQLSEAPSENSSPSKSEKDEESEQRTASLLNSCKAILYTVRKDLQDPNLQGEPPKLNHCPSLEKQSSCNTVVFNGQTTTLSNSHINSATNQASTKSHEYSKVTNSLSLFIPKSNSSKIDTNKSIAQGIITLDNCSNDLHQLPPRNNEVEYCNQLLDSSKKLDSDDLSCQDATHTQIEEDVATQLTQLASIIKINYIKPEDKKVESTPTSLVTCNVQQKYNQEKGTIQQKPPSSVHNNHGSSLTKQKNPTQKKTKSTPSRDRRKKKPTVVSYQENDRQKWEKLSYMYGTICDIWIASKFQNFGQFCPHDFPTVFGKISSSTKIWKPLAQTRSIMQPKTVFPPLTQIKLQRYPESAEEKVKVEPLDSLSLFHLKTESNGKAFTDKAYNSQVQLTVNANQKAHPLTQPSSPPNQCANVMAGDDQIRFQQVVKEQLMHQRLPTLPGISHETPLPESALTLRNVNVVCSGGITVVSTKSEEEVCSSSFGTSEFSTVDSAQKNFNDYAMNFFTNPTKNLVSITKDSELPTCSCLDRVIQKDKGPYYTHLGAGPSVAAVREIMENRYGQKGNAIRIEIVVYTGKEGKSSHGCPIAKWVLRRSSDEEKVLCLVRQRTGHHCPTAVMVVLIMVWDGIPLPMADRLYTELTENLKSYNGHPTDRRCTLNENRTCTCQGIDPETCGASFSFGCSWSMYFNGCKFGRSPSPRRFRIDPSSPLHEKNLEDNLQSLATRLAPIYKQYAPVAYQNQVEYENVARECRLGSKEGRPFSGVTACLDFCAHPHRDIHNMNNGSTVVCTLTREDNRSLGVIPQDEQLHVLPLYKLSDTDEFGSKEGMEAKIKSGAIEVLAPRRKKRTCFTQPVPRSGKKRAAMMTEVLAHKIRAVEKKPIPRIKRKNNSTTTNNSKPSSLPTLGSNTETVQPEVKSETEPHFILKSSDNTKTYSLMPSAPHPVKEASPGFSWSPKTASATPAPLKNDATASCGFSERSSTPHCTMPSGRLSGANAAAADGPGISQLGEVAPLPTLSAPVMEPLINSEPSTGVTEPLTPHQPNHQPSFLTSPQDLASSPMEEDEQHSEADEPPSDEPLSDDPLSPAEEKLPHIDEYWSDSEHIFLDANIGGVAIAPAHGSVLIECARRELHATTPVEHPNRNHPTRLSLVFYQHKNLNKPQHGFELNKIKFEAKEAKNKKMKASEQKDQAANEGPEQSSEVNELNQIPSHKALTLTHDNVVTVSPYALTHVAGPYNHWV
Procedure: Figure 4 and Table S1 show the dependence of TET1 activity on the concentration of compound 1.
Compounds 1–6 were tested for the inhibition of the total 5mC hydroxylase TET enzyme using a purified TET1 enzyme (Active Motif, Carlsbad, CA, USA) by a fluorometric TET hydroxylase activity quantification kit (Abcam, Cambridge, UK). A total of 25 µg of purified TET1 protein was diluted in a TET assay buffer in a 5 mL volumetric flask, containing α-ketoglutarate and ferric sulfate. The concentrations of ascorbic acid, α-ketoglutarate, and ferric sulfate in the diluted TET assay buffer were 2, 1, and 0.1 mM, respectively. Tested compounds were dissolved in DMSO to obtain a concentration of 0.01 M. DMSO solutions of compounds 1–6 were then diluted with a TET assay buffer to concentrations of 10^−6, 10^−5, 10^−4, and 10^−3 M (in 10% of DMSO). Subsequently, 50 μL of the final TET assay buffer containing the TET1 protein and 5 μL of chelator’s solution was applied to each sample well. In control wells (TET1 without inhibitors), 5 μL of the final TET assay buffer with 10% DMSO was used instead of chelator’s solution. The final concentrations of chelators in a well plate were 10^−7, 10^−6, 10^−5, 10^−4, and 0 M with less than 1% of final concentration of DMSO. The following steps were performed according to manufacturer’s protocol. The TET1 protein converts methylated substrate to hydroxymethylated products, which could be recognized by a specific antibody. We determined the residual activity of the TET1 protein by measuring a fluorescence intensity on an enzyme-linked immunoabsorbent assay reader (ELISA), Infinite® 200 PRO (Tecan, Switzerland, Switzerland), at an excitation wavelength at 530 nm and an emission wavelength at 590 nm. Each concentration was measured twice within one test, and each test was repeated three times. IC50 values of active inhibitors were determined using GraphPad Prism 8 via nonlinear regression.

U-118 MG cells = experiment: MTT cytotoxicity assay, U-118 MG; assay type: cell-based, human; conditions: 48 h
Procedure: (§1) The effects of the tested compounds 1–6 on HF-P4, U-118 MG, H1299, BT-20, and Caov-3 cell lines were evaluated by the MTT assay during 48 h treatment (Table 2 and Tables S2–S31). In all tested compounds, we recognized a difference in cytotoxicity between healthy cells (HF-P4) and cancer cell lines (BT-20, Caov-3, and H-1299). […] In the case of ovarian cancer, the authors discovered oncogenic and poor prognosis roles of TET1 in epithelial ovarian carcinoma (EOC). TET1 is believed to demethylate the epigenome and activate numerous oncogenic pathways in EOC. The aforementioned study presents a new mechanism where TET1 contributes to tumor development through collaboration with CK2α [21]. The overexpression of the TET1 protein was also found in triple negative breast cancer and was associated with an activation of PI3K/mTOR pathway and decreased overall survival.
(§2) A human glioblastoma cell line (U118-MG) and a human non-small-cell lung carcinoma cell line (H1299) were used for the cytotoxicity assay (MTT). Both cell lines were generously supplied by Dr. M. Masařik, PhD, Department of Pathological physiology, Masaryk University, Czech Republic. U118-MG cells were cultivated under standard conditions in Dulbecco’s modified Eagle’s medium (ATCC, Manassas, VA, USA) supplemented with 10% FBS and streptomycin (100 μg/mL) at 37 °C at a 5% CO2 atmosphere. H1299 cells were cultivated under standard conditions in RPMI 1640 (BioTech, Prague, Czech Republic) medium supplemented with 10% FBS and streptomycin (100 μg/mL) at 37 °C at a 5% CO2 atmosphere.
(§3) For the cytotoxicity assay, we used the following cell lines: human glioblastoma cell line U118-MG, human mammary gland/breast cell line BT-20, human ovary adenocarcinoma cell line Caov-3, and non-small-cell lung carcinoma H-1299. As previously mentioned, these cell lines contain a high level of the TET1 protein, which corresponds to a lower overall survival. In addition to these cell cultures, we used the human dermal fibroblast cell line HF-P4 as a healthy control. Determination of cytotoxicity was performed using the MTT [3-(4,5-dimethylthiazol-2-yl)-2,5-diphenyltetrazolium bromide] colorimetric assay. Viable cells from each cell line were cultured in 96-well plates (VWR, Stříbrná Skalice, Czech Republic) at a density of 1.0 × 10^5 cells per well and allowed to grow for 24 h in 200 μL of recommended medium. After a 1-day incubation, the medium was replaced with solutions of compounds 1–6 at concentration ranges of 0.1–20 μM. Each concentration was measured four times within one test, and the entire test was repeated three times. Tested compounds 1–6 were dissolved in DMSO and then diluted with corresponding medium to a final volume of 200 μL (maximum 1% DMSO). After 48 h exposure, cells were treated with 175 μL of MTT solution (P-LAB, Prague, Czech Republic) for 2 h. In the next step, MTT solution was removed, and 125 μL of DMSO (Penta, Prague, Czech Republic) was added to solubilize dark crystals of formazan formed in intact cells, and absorbance was measured at 570 nm by the enzyme-linked immunoabsorbent assay reader Infinite® 200 PRO (Tecan, Männedorf, Switzerland). The final DMSO concentration was smaller than 1% (v/v). The absorbance of untreated cells was considered 100%, and IC50 values were calculated by the GraphPad Prism 8 software. As a parameter for cytotoxicity, we used a concentration that inhibits 50% of cell growth (IC50).

H-1299 cells = experiment: MTT cytotoxicity assay, H-1299; assay type: cell-based, human
Procedure: as §1, §2, §3

CCN(CC)c1ccc(/C=N/NC(=O)c2ccc(-c3cc4c(cc(-c5ccc(C(=O)N/N=C/c6ccc(N(CC)CC)cc6O)cc5)n4-c4ccc(C)cc4)n3-c3ccc(C)cc3)cc2)c(O)c1 [Compound 2]
inhibitory activity towards TET1 (TET1 protein): no inhibitory effect; also recorded: no significant inhibition | viability at 0.1 µM (U-118 MG cells; Homo sapiens, U-118-MG, U-118 MG, 100 nM, repeats, read-out: Cell viability %): 82.5% | viability at 0.5 µM (U-118 MG cells; Homo sapiens, U-118-MG, U-118 MG, 500 nM, repeats, read-out: Cell viability %): 64% | viability at 0.75 µM (U-118 MG cells; Homo sapiens, U-118-MG, U-118 MG, 750 nM, repeats, read-out: Cell viability %): 70% | viability at 1 µM (U-118 MG cells; Homo sapiens, U-118-MG, U-118 MG, 1 uM, repeats, read-out: Cell viability %): 84.1% | viability at 2.5 µM (U-118 MG cells; Homo sapiens, U-118-MG, U-118 MG, 2.5 uM, repeats, read-out: Cell viability %): 70.7% | viability at 5 µM (U-118 MG cells; Homo sapiens, U-118-MG, U-118 MG, 5 uM, repeats, read-out: Cell viability %): 62.1% | viability at 7.5 µM (U-118 MG cells; Homo sapiens, U-118-MG, U-118 MG, 7.5 uM, repeats, read-out: Cell viability %): 66.3% | viability at 10 µM (U-118 MG cells; Homo sapiens, U-118-MG, U-118 MG, 10 uM, repeats, read-out: Cell viability %): 57.9% | viability at 15 µM (U-118 MG cells; Homo sapiens, U-118-MG, U-118 MG, 15 uM, repeats, read-out: Cell viability %): 51.1% | viability at 20 µM (U-118 MG cells; Homo sapiens, U-118-MG, U-118 MG, 20 uM, repeats, read-out: Cell viability %): 39.1% | IC50 (U-118 MG cells; Homo sapiens, U-118-MG, MTT): > 20 µM | Cell viability % (U-118 MG cells; U-118 MG, 100 nM, repeats, 0.1 µM): 87.05% | Cell viability % (U-118 MG cells; U-118 MG, 500 nM, repeats, 0.5 µM): 68.29% and 66.76% | Cell viability % (U-118 MG cells; U-118 MG, 750 nM, repeats, 0.75 µM): 77.02% and 67.38% | Cell viability % (U-118 MG cells; U-118 MG, 1 uM, repeats): 82.08% and 80.29% | Cell viability % (U-118 MG cells; U-118 MG, 2.5 uM, repeats): 64.2773% and 70.34% | Cell viability % (U-118 MG cells; U-118 MG, 5 uM, repeats): 65.5% and 62.23% | Cell viability % (U-118 MG cells; U-118 MG, 7.5 uM, repeats): 62.32% and 65.79% | Cell viability % (U-118 MG cells; U-118 MG, 10 uM, repeats): 65.41% and 61.07% | Cell viability % (U-118 MG cells; U-118 MG, 15 uM, repeats): 55.67% and 56.45% | Cell viability % (U-118 MG cells; U-118 MG, 20 uM, repeats): 44.6621% and 48.66% | Cell viability % (H-1299 cells; H-1299, 100 nM, 48 h, repeats, 0.1 µM): 61.37% and 71.3% | Cell viability % (H-1299 cells; H-1299, 500 nM, 48 h, repeats, 0.5 µM): 66.22% and 72.36% | Cell viability % (H-1299 cells; H-1299, 750 nM, 48 h, repeats, 0.75 µM): 70.74% and 81.49% | Cell viability % (H-1299 cells; H-1299, 1 uM, 48 h, repeats, 1 µM): 69.87% and 82.47% | Cell viability % (H-1299 cells; H-1299, 2.5 uM, 48 h, repeats, 2.5 µM): 66.9068% and 60.82% | Cell viability % (H-1299 cells; H-1299, 5 uM, 48 h, repeats, 5 µM): 53.26% and 57.69% | Cell viability % (H-1299 cells; H-1299, 7.5 uM, 48 h, repeats, 7.5 µM): 36.17% and 50.75% | Cell viability % (H-1299 cells; H-1299, 10 uM, 48 h, repeats, 10 µM): 38.48% and 47.35% | Cell viability % (H-1299 cells; H-1299, 15 uM, 48 h, repeats, 15 µM): 39.64% and 37.79% | Cell viability % (H-1299 cells; H-1299, 20 uM, 48 h, repeats, 20 µM): 32.04% and 28.82% | viability at 0.1 µM (H-1299 cells; Homo sapiens, NCI-H1299, 48 h, H-1299, 100 nM, repeats, read-out: Cell viability %): 77.6% | viability at 0.5 µM (H-1299 cells; Homo sapiens, NCI-H1299, 48 h, H-1299, 500 nM, repeats, read-out: Cell viability %): 71.5% | viability at 0.75 µM (H-1299 cells; Homo sapiens, NCI-H1299, 48 h, H-1299, 750 nM, repeats, read-out: Cell viability %): 74.1% | viability at 1 µM (H-1299 cells; Homo sapiens, NCI-H1299, 48 h, H-1299, 1 uM, repeats, read-out: Cell viability %): 72.4% | viability at 2.5 µM (H-1299 cells; Homo sapiens, NCI-H1299, 48 h, H-1299, 2.5 uM, repeats, read-out: Cell viability %): 73.2% | viability at 5 µM (H-1299 cells; Homo sapiens, NCI-H1299, 48 h, H-1299, 5 uM, repeats, read-out: Cell viability %): 53.2% | viability at 7.5 µM (H-1299 cells; Homo sapiens, NCI-H1299, 48 h, H-1299, 7.5 uM, repeats, read-out: Cell viability %): 42.3% | viability at 10 µM (H-1299 cells; Homo sapiens, NCI-H1299, 48 h, H-1299, 10 uM, repeats, read-out: Cell viability %): 45.5% | viability at 15 µM (H-1299 cells; Homo sapiens, NCI-H1299, 48 h, H-1299, 15 uM, repeats, read-out: Cell viability %): 39.8% | viability at 20 µM (H-1299 cells; Homo sapiens, NCI-H1299, 48 h, H-1299, 20 uM, repeats, read-out: Cell viability %): 28.6% | IC50 (H-1299 cells; Homo sapiens, NCI-H1299, MTT, 48 h): 8.94 µM

From paper PMC9505425, “Targeting of the Mitochondrial TET1 Protein by Pyrrolo[3,2-b]pyrrole Chelators” (International Journal of Molecular Sciences, 2022)
